# Results published in patent US5582832A, “Compositions for topical application to skin” (priority 1995, dated 1996).
# Experiments:
# keratinocytes [1] = conditions: exogenous or endogenous; cited from earlier work
# [2] = test system: 1,25D degradation (vitamin D metabolism in keratinocytes); test: Vitamin D metabolism in keratinocytes: 1,25D degradation; assay type: cell-based, human; conditions: for 1,25D (% degradation): Table 3, 10 uM
# Method: (§1) 1. Normal human keratinocytes isolated from neonatal foreskins by trypsin treatment were grown in DME medium/10% fetal calf serum in the presence of irradiated 3T3 mouse fibroblasts for establishing dividing keratinocyte colonies. Keratinocytes were grown under the above condition until their third passage.
# (§2) 80% confluent keratinocytes were incubated with 0.05 uCi of ^3 H-25D or ^3 H-1,25D for two hours or 20 hours in the presence of 1-100 uM of the different compounds. Reaction was stopped by addition of methanol and the cells and medium were extracted using chloroform:methanol. The chloroform layer was separated, dried and spotted on TLC plates. […] The amount of radioactivity in each lane was quantitated using the BioScan radioactive plate reader. The amount of radioactivity remaining in the peak area of 25D and 1,25D were calculated as % of control. The % remaining was subtracted from 100 to get the % degradation of the metabolites.
# (§3) The data are expressed as mean of % degradation of 25D or 1,25D. The range is also given in parenthesis.
# [3] = test system: histamine induced erythema; conditions: cited from earlier work
# keratinocytes [4] = test: Rate of DNA synthesis (3H-thymidine incorporation) in keratinocytes; assay type: cell-based, human
# Method: as §1
# 2. For the experiments, third passage keratinocytes were plated into a serum-free keratinocyte growth medium (KSFM; obtained from Life Technologies, Grand Island, N.Y.) containing 0.09 mM calcium. 20,000 to 30,000 cells were plated into each well of 24 well cell culture plates and grown for 5 days, until the cells reach about 80% confluence.
# 3. Medium was changed to fresh medium and the various test materials were added to the medium from an ethanolic stock solution (10:00 AM). The final ethanol concentration in the cultures was kept below 0.2%. Control cultures received no tested material but were dosed with 0.2% ethanol. Each compound or combination was tested in three separate wells. By 4:00 PM, 1 uCi of ^3 H-thymidine (Amersham Corp., Sp activity 40 Ci/mmol) was added to the 1 ml medium in each well. The cells were incubated overnight and […] (10:00 AM next day) the amount of ^3 -thymidine associated with the cellular DNA of keratinocytes was assessed as described below.
# 4. The medium was aspirated, and the wells washed with 1 ml phosphate-buffered saline. The DNA and proteins of the cells in the plate were then precipitated by adding 1 ml of ice-cold 10% trichloroacetic acid (TCA). The plates were left on ice for 30 minutes to complete the precipitation process. TCA was then aspirated and each well was then washed four times with 5% TCA. The plates were then dried on a filter pad and the cells in the wells were dissolved in 0.5 ml of 0.1N sodium hydroxide. The sodium hydroxide was then neutralized using 0.1N hydrochloric acid and the solution (1 ml total volume) was then transferred to a scintillation vial. 50 μl samples from each vial were used for protein assay using BCA protein assay reagent obtained from Pierce Chemical Company. 8 ml of a scintillation fluid (Ecolume) was added to the rest of the solution in the vial, and the vials were counted in a scintillation counter to determine the amount of radioactivity in each vial. The DNA synthesis rate was then calculated as cpm ^3 H thymidine incorporated into total cellular DNA/microgram of cell protein for each individual well. Mean and standard deviation for each group was also calculated.
# Rationale for using 1,25D is that in in vivo situation, these azoles will inhibit the endogenous degradation of the 1,25D which is obtained from the circulation. Azoles will act in keratinocytes to increase the endogenous levels of 1,25D within cells. Keratinocytes (70% confluent) were incubated with 10 uM of the different azoles in the presence of 100 nM 1,25D. One of the groups was treated with 5 uM of ceramide of Formula A in the medium. After four hours, all the wells were treated with 1 uCi ^3 H-thymidine and the rate of DNA synthesis was estimated as described in the methods.
# Keratinocytes were incubated with 1 or 10 uM of Econazole in the presence of 1 uM of the different ceramide analogues and 100 nM 1,25D in the medium. Thymidine incorporation was measured with an overnight incubation as described in Example 2.
# [5] = test system: 25D degradation (vitamin D metabolism in keratinocytes); test: Vitamin D metabolism in keratinocytes: 25D degradation; assay type: cell-based, human; conditions: for 25D (% degradation): Table 3, 10 uM
# Method: as §1, §2, §3
# vitamin D metabolism = conditions: cited from earlier work
# [6] = Table 2, 1 uM, 20 hour incubation, mean of duplicate (range)
smiles,measurement,setting,value
"C=C1/C(=C\C=C2/CCC[C@]3(C)[C@@H]([C@H](C)CCCC(C)(C)O)CC[C@@H]23)C[C@@H](O)C[C@@H]1O [1,25-(OH)2 D3]",inhibition of DNA synthesis and induction of differentiation (in words),keratinocytes [1],"inhibit DNA synthesis (i.e., inhibit growth) and induce differentiation of keratinocytes"
"C=C1CC[C@H](O)C/C1=C/C=C1\CCC[C@]2(C)[C@@H]([C@H](C)CCCC(C)(C)O)CC[C@@H]12 [25-hydroxyvitamin D (25D), 25-hydroxyvitamin D]",inhibition of DNA synthesis and induction of differentiation (in words),keratinocytes [1],"inhibit DNA synthesis (i.e., inhibit growth) and induce differentiation of keratinocytes"
c1ccc(-c2ccc(C(c3ccccc3)n3ccnc3)cc2)cc1 (stereo not shown) [Bifonazole],"blocking of 1,25D degradation (in words)","[2]; 1 uM, 20 hours (Table 2)",very effective
same,"blocking of 1,25D metabolism (in words)",[2]; 2 hours,ineffective
same,"blocking of 1,25D metabolism (in words)",[2]; 20 hours,very effective
same,"% degradation (1,25D)","[2]; Table 1, 10 uM compound",56%
same,"1,25D degradation (%)",[2]; [6],37.0 (25.4-48.6) %
same,"1,25D (% degradation)",[2]; 2 hours,83%
same,"1,25D (% degradation)",[2]; 20 hours,56%
same,direct anti-inflammatory activity (in words),[3],direct anti-inflammatory activity
same,"DNA synthesis, % of control (100 nM 1,25D + 5 uM ceramide Formula A)","keratinocytes [4]; Table 4, 10 uM azole (or no azole) + 100 nM 1,25D + 5 uM ceramide Formula A, mean + SD, * = synergistic effect, 1440 min",44.4 + 7.3 % of control
same,"DNA synthesis, % of control (azole, only 100 nM 1,25D)","keratinocytes [4]; Table 4, 10 uM azole, 100 nM 1,25D, no ceramide, mean + SD, 1440 min",75.8 + 4.3 % of control
same,DNA synthesis (% control),"keratinocytes [4]; Tables 4A-4F, 100 nM 1,25D, azole 10 uM, ceramide Formula A 5 uM, 1440 min",75.8 % control
same,DNA synthesis,"keratinocytes [4]; Tables 4A-4F, 100 nM 1,25D, azole 10 uM, ceramide Formula A 5 uM, mean + SD",111256 + 6355 cpm 3H thymidine incorporated
same,blocking of 25D degradation (in words),"[5]; 1 uM, 20 hours (Table 2)",very effective
same,blocking of 25D metabolism (in words),[5]; 2 hours,ineffective
same,blocking of 25D metabolism (in words),[5]; 20 hours,very effective
same,% degradation (25D),"[5]; Table 1, 10 uM compound",15%
same,25D degradation (%),[5]; [6],41.2 (35.4-47.1) %
same,25D (% degradation),[5]; 2 hours,89%
same,25D (% degradation),[5]; 20 hours,15%
"CC(=O)N1CCN(c2ccc(OCC3COC(Cn4ccnc4)(c4ccc(Cl)cc4Cl)O3)cc2)CC1 (stereo not shown) [Ketoconazole, ketoconazole]",inhibition of vitamin D metabolism (in words),vitamin D metabolism,established inhibitor of vitamin D metabolism
